Structures can show the parent of a compound that is named as a salt. Where two headings read alike, the source gives them in different places. Positions of bridges follow the written chain, without caps; N, C: chain ends. Residues, ends and D or L forms follow the SMILES beside them. Chains are numbered I, II in the order given.
Tests used:
CHO-K1 cells = assay: In vitro cytotoxicity / viability assay (MTS) on CHO-K1 cells; type: cell-based, Chinese hamster; settings: high concentration (tested at 1 and 10 mM), 24 h with dipeptide, samples adjusted to pH 7, vs control medium without (Lys-Cys)2
Procedure: (§1) • The assay was performed with human bone marrow stromal cells, mesenchymal stem cells (MSC) or Chinese hamster ovary cells (subclone K1), respectively. In a first step, the cells were seeded in a transparent 96-well cell culture plate and incubated for 24 h in a CO2-Incubator (37° C., 5% CO2, 95% humidity) at a cell density of 10.000 cells/well and in a final volume of 100 μl/well. After the resting time of 24 hours the supernatants were discarded, and prepared dipeptide test compounds were added to the cells in a final volume of 100 μl/well. The control was rested in medium without dipeptide.
(§2) All samples were dissolved directly in associated cell culture medium. pH values of the samples were adjusted to pH 7 in advance, to exclude an influence on the cell viability due to a potentially lower pH value.
(§3) Different salt forms of (Lys-Cys)2 were tested in two different concentrations and each sample was tested in triplicates. […]
(§4) As a result of the reduction of MTS into a formazan product by metabolically active cells, an absorbance signal of formazan could be measured at a wavelength of 490 nm in a multiplate reader. […]
(§5) CHO-K1 as well as MSC cells were cultured for 24 hours before the addition of different (Lys-Cys)2 salts. […] After 24-hour cultivation with the dipeptides, the cell viability was assessed using the CellTiter 96® AQueous Non-Radioactive Cell Proliferation Assay (MTS).

[1] = test system: human bone marrow stromal cells, mesenchymal stem cells (MSC); assay: In vitro cytotoxicity / viability assay (MTS) on mesenchymal stem cells; type: cell-based; settings: high concentration (tested at 1 and 10 mM), 24 h with dipeptide, samples adjusted to pH 7, vs control medium without (Lys-Cys)2
Procedure: as §1, §2, §3, §4, §5

[2] = Storage stability test of salt forms (HPLC); type: physicochemical
Procedure: Storage stability tests at 25° C. and at 60° C. were conducted with the different salt forms of the (Lys-Cys) 2. Stability was measured with a HPLC method.

SMILES | cell viability (CHO-K1 cells) | cell viability [1] | storage stability ([2]; storage at 25° C. and at 60° C., HPLC, compared with the chloride free, basic form) | storage stability [2]
NCCCC[C@H](N)C(=O)N[C@@H](CSSC[C@H](NC(=O)[C@@H](N)CCCCN)C(=O)O)C(=O)O [2 HCl form, N,N′-di-L-lysyl-L-cystine dihydrochloride] (I: H-Lys-Cys-OH / II: H-Lys-Cys-OH; disulfide I:2-II:2) | improved cell viability | improved cell viability | significantly more stable | –
Cl.Cl.Cl.Cl.NCCCC[C@H](N)C(=O)N[C@@H](CSSC[C@H](NC(=O)[C@@H](N)CCCCN)C(=O)O)C(=O)O [4 HCl form, N,N′-di-L-lysyl-L-cystine tetrahydrochloride] (I: H-Lys-Cys-OH / II: H-Lys-Cys-OH; disulfide I:2-II:2) | reduced cell viability | – | – | significantly more stable
